Numbers after ± are expanded uncertainties.
Assay: refractive index (Na D-line) (dimensionless); xn = mol fraction of the nth substance listed
Conditions: 101 kPa, Liquid, Standard Abbe refractometry

C=CC(C)(O)CCC=C(C)C (stereo not drawn) [3,7-dimethyl-1,6-octadien-3-ol] + CCCO
refractive index
Conditions	283.15 K	298.15 K	313.15 K	328.15 K
x1 = 0.0533	1.39881 ± 0.00032	1.39255 ± 0.00033	1.38616 ± 0.00033	1.3796 ± 0.00033
x1 = 0.1051	1.40707 ± 0.00033	1.40075 ± 0.00033	1.39427 ± 0.00033	1.38756 ± 0.00033
x1 = 0.2014	1.41983 ± 0.00033	1.41337 ± 0.00034	1.40675 ± 0.00034	1.39986 ± 0.00034
x1 = 0.3032	1.43049 ± 0.00035	–	–	–
x1 = 0.3049	–	1.42409 ± 0.00035	1.41728 ± 0.00035	1.41023 ± 0.00035
x1 = 0.3869	1.43761 ± 0.00036	1.43088 ± 0.00036	1.42395 ± 0.00036	1.41687 ± 0.00036
x1 = 0.4929	–	–	–	1.42395 ± 0.00038
x1 = 0.4951	1.44504 ± 0.00038	1.4382 ± 0.00038	1.43113 ± 0.00038	–
x1 = 0.5917	1.45054 ± 0.0004	1.44367 ± 0.0004	1.43657 ± 0.0004	1.42935 ± 0.0004
x1 = 0.6895	1.45535 ± 0.00042	1.4484 ± 0.00042	1.44114 ± 0.00042	1.4339 ± 0.00042
x1 = 0.767	–	–	–	1.4371 ± 0.00044
x1 = 0.7765	1.45896 ± 0.00044	1.45193 ± 0.00044	1.44473 ± 0.00044	–
x1 = 0.8735	1.46254 ± 0.00047	1.45549 ± 0.00047	1.44824 ± 0.00047	1.44085 ± 0.00047
x1 = 0.9296	1.46441 ± 0.00048	1.4573 ± 0.00048	1.44997 ± 0.00048	1.44249 ± 0.00048
x1 = 1	1.4666 ± 0.0005	1.45946 ± 0.0005	1.45215 ± 0.0005	1.44473 ± 0.0005
